Measured values as given in patent US10568856B2, “Composition for improved sleep” (Jamieson Laboratories, Ltd., priority 2015, dated 2020).

Test: Melatonin time release profile (dissolution testing) of bilayer caplet
Type: physicochemical
Conditions: for Melatonin Released (%): bilayer caplet
Excerpt: Initially, a small portion of melatonin was being added to the immediate release layer. […] The premix blends were modified by relocating all melatonin ingredients to the time release layer. During initial trials, modifications were also made to excipients for cost purposes. […] The final bilayer caplet is coated, making it easier to swallow, with peppermint oil for odour masking. With these optimum parameters assessed for each layer, the tablet satisfies all of the requisite physical and chemical parameters to deliver the ingredients as intended.

SMILES: COc1ccc2[nH]cc(CCNC(C)=O)c2c1 [Melatonin]
- Melatonin Released (%) (hardness 28 kp, time 15 minutes): 20%
- Melatonin Released (%) (hardness 28 kp, time 60 minutes): 57%
- Melatonin Released (%) (hardness 28 kp, time 360 minutes): 99%
- Melatonin Released (%) (hardness 30 kp, time 15 minutes): 18%
- Melatonin Released (%) (hardness 30 kp, time 60 minutes): 52%
- Melatonin Released (%) (hardness 30 kp, time 360 minutes): 98%
- melatonin release in dissolution testing (initial trial formulation with a small portion of melatonin in the immediate release layer): released too quickly
